Measured values published in PubChem BioAssay AID1963874 (Molecular Pharmacology Branch, DTP, NCI, 2024).
pIC50: −log10 of the molar value.

Test system: 253994-281-T-J1-PDC KRAS-mutant spheroids with HUVEC/MSC, viability
Test: Anticancer human tumor 253994-281-T-J1-PDC patient-derived colorectal carcinoma cell line growth inhibition [KRAS2]
Conditions: for pIC50: curve of first compound; for viability, T/C: stronger effect = lower value
Summary of the method: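 KRAS-mutant tumor cells were grown as spheroids with HUVEC endothelial cells and human MSCs as stroma. Targeted agents were tested alone and with KRAS pathway inhibitors. Doses started at or near clinical Cmax, or 10 microM, descending half-log.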

[1] = second compound 0.0316 µM, first compound 0.0316 µM
[2] = second compound 0.0316 µM, first compound 0.1 µM
[3] = second compound 0.0316 µM, first compound 0.316 µM
[4] = second compound 0.0316 µM, first compound 1 µM
[5] = second compound 0.0316 µM, first compound 3.16 µM
[6] = second compound 0.0316 µM, first compound 10 µM
[7] = second compound 0.1 µM, first compound 0.0316 µM
[8] = second compound 0.1 µM, first compound 0.1 µM
[9] = second compound 0.1 µM, first compound 0.316 µM
[10] = second compound 0.1 µM, first compound 1 µM
[11] = second compound 0.1 µM, first compound 3.16 µM
[12] = second compound 0.1 µM, first compound 10 µM
[13] = second compound 0.316 µM, first compound 0.0316 µM
[14] = second compound 0.316 µM, first compound 0.1 µM
[15] = second compound 0.316 µM, first compound 0.316 µM
[16] = second compound 0.316 µM, first compound 1 µM
[17] = second compound 0.316 µM, first compound 3.16 µM
[18] = second compound 0.316 µM, first compound 10 µM
[19] = second compound 1 µM, first compound 0.0316 µM
[20] = second compound 1 µM, first compound 0.1 µM
[21] = second compound 1 µM, first compound 0.316 µM
[22] = second compound 1 µM, first compound 1 µM
[23] = second compound 1 µM, first compound 3.16 µM
[24] = second compound 1 µM, first compound 10 µM
[25] = second compound 3.16 µM, first compound 0.0316 µM
[26] = second compound 3.16 µM, first compound 0.1 µM
[27] = second compound 3.16 µM, first compound 0.316 µM
[28] = second compound 3.16 µM, first compound 1 µM
[29] = second compound 3.16 µM, first compound 3.16 µM
[30] = second compound 3.16 µM, first compound 10 µM
[31] = second compound 0.0316 µM, first compound 0.00316 µM
[32] = second compound 0.0316 µM, first compound 0.01 µM
[33] = second compound 0.1 µM, first compound 0.00316 µM
[34] = second compound 0.1 µM, first compound 0.01 µM
[35] = second compound 0.316 µM, first compound 0.00316 µM
[36] = second compound 0.316 µM, first compound 0.01 µM
[37] = second compound 1 µM, first compound 0.00316 µM
[38] = second compound 1 µM, first compound 0.01 µM
[39] = second compound 3.16 µM, first compound 0.00316 µM
[40] = second compound 3.16 µM, first compound 0.01 µM
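Also: spheroids exposed to agents for seven days before readout.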
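For viability, T/C in this document: percent of DMSO vehicle control viability.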

Row | Compound | pIC50 (second compound 0.0316 µM) | pIC50 (second compound 0.1 µM) | pIC50 (second compound 0.316 µM) | pIC50 (second compound 1 µM) | pIC50 (second compound 3.16 µM) | viability, T/C [1] [%] | viability, T/C [2] [%] | viability, T/C [3] [%] | viability, T/C [4] [%] | viability, T/C [7] [%] | viability, T/C [8] [%] | viability, T/C [9] [%] | viability, T/C [10] [%] | viability, T/C [13] [%] | viability, T/C [14] [%] | viability, T/C [15] [%] | viability, T/C [19] [%] | viability, T/C [20] [%] | viability, T/C [25] [%] | viability, T/C [26] [%] | other results
1 | CC(C)NCC(C(=O)N1CCN(c2ncnc3c2C(C)CC3O)CC1)c1ccc(Cl)cc1 (stereo not given) + C=CC(=O)N1CCN(c2nc(OCC3CCCN3C)nc3c2CCN(c2cccc4cccc(C)c24)C3)CC1CC#N | < 5.00 | < 5.00 | < 5.00 | < 5.00 | > 7.50 | 104 | 105 | 99.7 | 94.7 | 101 | 98.8 | 105 | 91 | 84 | 94.2 | 92.8 | 85.6 | 101 | 2.67 | 11.2 | viability, T/C [5]: 96.3%; viability, T/C [6]: 92.7%; viability, T/C [11]: 94.5%; viability, T/C [12]: 100%; viability, T/C [16]: 84.9%; viability, T/C [17]: 77.8%; viability, T/C [18]: 85.2%; viability, T/C [21]: 95.1%; viability, T/C [22]: 90.3%; viability, T/C [23]: 93.6%; viability, T/C [24]: 88.7%; viability, T/C [27]: 14.7%; viability, T/C [28]: 12.3%; viability, T/C [29]: 4.04%; viability, T/C [30]: 0.49%
2 | CCN1CCN(Cc2ccc(Nc3ncc(F)c(-c4cc(F)c5nc(C)n(C(C)C)c5c4)n3)nc2)CC1 + C=CC(=O)N1CCN(c2nc(OCC3CCCN3C)nc3c2CCN(c2cccc4cccc(C)c24)C3)CC1CC#N | < 6.00 | 6.12 | < 6.00 | 6.23 | 7.38 | 79.4 | 92.2 | 66.8 | 51.6 | 79.3 | 82.5 | 73.4 | 42.2 | 85 | 77.5 | 68 | 82.7 | 74.9 | 57 | 32.9 | viability, T/C [31]: 91.2%; viability, T/C [32]: 105%; viability, T/C [33]: 88.7%; viability, T/C [34]: 89.7%; viability, T/C [35]: 90.5%; viability, T/C [36]: 92.4%; viability, T/C [16]: 52.5%; viability, T/C [37]: 81.4%; viability, T/C [38]: 95.7%; viability, T/C [21]: 64.9%; viability, T/C [22]: 38%; viability, T/C [39]: 61.5%; viability, T/C [40]: 61.1%; viability, T/C [27]: 15.3%; viability, T/C [28]: 1.78%
3 | CCNC(=O)CC1N=C(c2ccc(Cl)cc2)c2cc(OC)ccc2-n2c(C)nnc21 (stereo not given) + C=CC(=O)N1CCN(c2nc(OCC3CCCN3C)nc3c2CCN(c2cccc4cccc(C)c24)C3)CC1CC#N | < 5.00 | < 5.00 | < 5.00 | < 5.00 | 6.06 | 101 | 99.7 | 88.3 | 97 | 92.2 | 110 | 96.9 | 107 | 107 | 104 | 106 | 98.4 | 108 | 84 | 96.2 | viability, T/C [5]: 107%; viability, T/C [6]: 85.9%; viability, T/C [11]: 97.9%; viability, T/C [12]: 86.5%; viability, T/C [16]: 91.4%; viability, T/C [17]: 92.8%; viability, T/C [18]: 90.7%; viability, T/C [21]: 95.8%; viability, T/C [22]: 91%; viability, T/C [23]: 93%; viability, T/C [24]: 85%; viability, T/C [27]: 83.2%; viability, T/C [28]: 25.9%; viability, T/C [29]: 65.9%; viability, T/C [30]: 43.8%
4 | Cn1ncnc1[C@H]1c2n[nH]c(=O)c3cc(F)cc(c23)N[C@@H]1c1ccc(F)cc1 + C=CC(=O)N1CCN(c2nc(OCC3CCCN3C)nc3c2CCN(c2cccc4cccc(C)c24)C3)CC1CC#N | < 7.00 | < 7.00 | < 7.00 | < 7.00 | 9.37 | 100 | 92.8 | – | – | 97.2 | 92.8 | – | – | 96.2 | 84.1 | – | 93.4 | 85.7 | 21 | 17.7 | viability, T/C (second compound 0.0316 µM, first compound 0.000316 µM): 93.7%; viability, T/C (second compound 0.0316 µM, first compound 0.001 µM): 93.7%; viability, T/C [31]: 96.8%; viability, T/C [32]: 105%; viability, T/C (second compound 0.1 µM, first compound 0.000316 µM): 94.8%; viability, T/C (second compound 0.1 µM, first compound 0.001 µM): 93.1%; viability, T/C [33]: 96.7%; viability, T/C [34]: 86.8%; viability, T/C (second compound 0.316 µM, first compound 0.000316 µM): 95.8%; viability, T/C (second compound 0.316 µM, first compound 0.001 µM): 105%; viability, T/C [35]: 98.4%; viability, T/C [36]: 88.4%; viability, T/C (second compound 1 µM, first compound 0.000316 µM): 96.8%; viability, T/C (second compound 1 µM, first compound 0.001 µM): 86.7%; viability, T/C [37]: 91.8%; viability, T/C [38]: 88.9%; viability, T/C (second compound 3.16 µM, first compound 0.000316 µM): 53.9%; viability, T/C (second compound 3.16 µM, first compound 0.001 µM): 39.2%; viability, T/C [39]: 28.2%; viability, T/C [40]: 13.3%
